Earlier results, collected in US8193152B2 (priority 2004, dated 2012).
Where two headings read alike, the source gives them in different places.

Key:
[1] = in vivo
[2] = in vivo; remark: listed apart in the source
mycobacterial infection = conditions: mouse, in vivo
mycobacteria = conditions: human, in vivo
PIC = conditions: guinea pig, in vivo
Machupo = conditions: rhesus monkey, in vivo

Compound: N[C@H](CCC(=O)N[C@@H](Cc1c[nH]c2ccccc12)C(=O)O)C(=O)O [SCV-07, γ-D-glutamyl-L-tryptophan]
- Con-A-induced thymocyte and lymphocyte proliferation (thymocyte and lymphocyte): increases
- Con-A-induced interleukin-2 (IL-2) production (spleen lymphocytes): increases
- IL-2 receptor expression (spleen lymphocytes): increases
- expression of Thy-1.2 (bone marrow cells): stimulates expression
- immunostimulatory effect [1]: strong immunostimulatory effect
- immunostimulatory effect [2]: strong immunostimulatory effect
- IFNγ production by Con-A-induced spleen cells (mycobacterial infection): higher
- IL-4 production by Con-A-induced spleen cells (mycobacterial infection): lower
- Phagocytic activity by peritoneal macrophages (mycobacterial infection): markedly increased
- lung damage (mycobacterial infection): significantly decrease
- cavity healing and symptoms of tuberculosis (mycobacteria): positive effect
- drug-induced adverse effects (mycobacteria): without any drug-induced adverse effects
- incidence of mycobacteria-negative sputum cultures (mycobacteria): increased

Compound: NC(=O)c1ncn([C@@H]2O[C@H](CO)[C@@H](O)[C@H]2O)n1 [ribavirin, Ribavirin, reference compound]
- time to death (PIC): prolonged

Compound: IFNα
- mortality (PIC): No significant improvement in mortality

Compound: poly (ICLC)
- Overall mortality and time to death (Machupo): not improved
- viremia (Machupo): significantly higher
